The test system of one data set is ventral prostate. Kind of data set: Androgenic effect in castrated male rats (ventral prostate weight). In kind it is in vivo. The conditions noted are these: both after subcutaneous and intraperitoneal administration; one daily injection for 7 days; preliminary experiments. How it is done: The androgenic activity, as described below, is determined with established methods (see e.g. Dorfman, R.: Methods in Hormone Research, vol. II, Acad. Press, New York and London 1962, p. 275).
The androgenic effect is assayed in castrated male rats. Beginning two weeks after castration the animals are given one daily injection of the compound for 7 days. The weight of the ventral prostate is determined on the 8th day.

For a further data set, the system named is Hepatoma AH 130. Kind of data set: Hepatoma AH 130 tumour growth inhibition in rats, i.p. The conditions noted are these: Hepatoma AH 130, one injection i.p. In kind it is in vivo, Sprague-Dawley rats. From the text: (§1) LD50 is the dose that causes a 50 percent lethality of the animals, and ED50 is the dose that causes a 50 percent reduction of tumour size.
(§2) From the data below it is obvious that the compounds have a very low toxicity, and that the therapeutic indexes (T.I.), i.e. the ratios LD50/ED50, are very high.
(§3) The experimental design is in accordance with the standards set by the CCNSC (Cancer Cheomotherapy Reports, January 1959 and December 1962).
(§4) Experimental animals: Sprague-Dawley rats.
Tumour implant: 5 × 10^6 tumour cells i.p.
(§5) Therapy: One injection i.p. on the day following implantation.
(§6) Termination: The animals are killed on the 8th day.
(§7) Evaluation: Weights of tumours of test animals are compared
(§8) with those of control animals.

Data set [1] in a line: Thymolytic activity (Hilger, Endocrine Bioassay Data, assay 8). It counts as in vivo. To be noted: preliminary experiments. From the text:
In preliminary experiments, invvestigating the thymolytic effect according to A. C.

The subject of data set [2] is Ehrlich ascites tumour, ELD hyperdiploid (46 chromosomes). Kind of data set: Ehrlich ascites tumour growth inhibition in mice, i.p. It counts as in vivo, SPF NMRI mice. The conditions noted are these: one injection i.p.; for Tumour weight Treated/Control (%): killed on 8th day.
Text: as §3
Ehrlich ascites tumour, ELD hyperdiploid
Experimental animals: SPF NMRI mice.
Tumour implant: 2 × 10^6 tumour cells i.p.
as §5, §6
Evaluation: Weight of tumours of test animals compared with
those of control animals.

A short description of data set [3]: Progestional activity, Clauberg test. In kind it is in vivo. The conditions noted are these: standard scale of McPhail, preliminary experiments. From the text:
The progestional activities of compounds 1:1, 1:2, 1:14, 2:2, and 2:11 are investigated in the Clauberg test using the prinicpal procedure as described by Elton and Edgren (Endocrinology 63 (1958) 464) and using the standard scale of McPhail (J. Physiol., London, 8 (1934) 145).

In data set [4] the test system is Walker carcinosarcoma 256. Kind of data set: Walker carcinosarcoma 256 tumour growth inhibition in rats, p.o. The conditions noted are these: Walker carcinosarcoma 256, daily p.o. for 5 days. In kind it is in vivo, Sprague-Dawley rats.
Text: as §1, §2, §3
Walker carcinosarcoma 256
as §4
Tumour implant: Tumour pieces with 2-4 mm diameter, subcu-
Therapy: Daily p.o. administration for 5 days starting on
the day following implantation.
Termination: The animals are killed on the 9th day.
as §7, §8

For the compound `CC(=O)O[C@H]1CC[C@H]2[C@@H]3CC=C4C=C(OC(=O)Cc5ccc(N(CCCl)CCCl)cc5)CC[C@]4(C)[C@H]3CC[C@]12C` [1:3], the androgenic effect result with ventral prostate was “considerable effect”.

On to `CC(=O)O[C@H]1CC[C@H]2[C@@H]3CC=C4C=C(OC(=O)CCCc5ccc(N(CCCl)CCCl)cc5)CC[C@]4(C)[C@H]3CC[C@]12C` [1:11, 17β-acetoxy-3-[4-(4-(N,N-bis(2-chloroethyl)amino)phenyl)butanoyloxy]androsta-3,5-diene], for which the androgenic effect entry in the data set with ventral prostate was “considerable effect”.

In the case of `CC(=O)O[C@H]1CC[C@H]2[C@@H]3CCC4CC(OC(=O)CCCc5ccc(N(CCCl)CCCl)cc5)=CC[C@]4(C)[C@H]3CC[C@]12C` (stereo partly drawn) [1:12, 17β-acetoxy-3-[4-(4-(N,N-bis(2-chloroethyl)amino)phenyl)butanoyloxy]androst-2-ene], in the data set with ventral prostate, the androgenic effect result is reported as “considerable effect”.

Consider `CCC(=O)O[C@H]1CC[C@H]2[C@@H]3CC=C4C=C(OC(=O)[C@H](Cc5ccc(N(CCCl)CCCl)cc5)NC(C)=O)CC[C@]4(C)[C@H]3CC[C@]12C` [1:13, 3-[(2S)-2-acetamido-3-(4-(N,N-bis(2-chloroethyl)amino)phenyl)propanoyloxy]-17β-propanoyloxyandrosta-3,5-diene], for which the anti-tumour activity result in the data set with Hepatoma AH 130 is reported as “exhibit anti-tumour activity”.

On to `CC(=O)OCC(=O)[C@@]1(OC(C)=O)CC[C@H]2[C@@H]3CC=C4C=C(OC(=O)CCCc5ccc(N(CCCl)CCCl)cc5)CC[C@]4(C)[C@H]3C(=O)C[C@@]21C` [1:15, 17,21-diacetoxy-3-[4-(4-(N,N-bis(2-chloroethyl)amino)phenyl)butanoyloxy]pregna-3,5-dien-11,20-dione], for which, in data set [1], the thymolytic effect result is reported as “significant activity”.

On to `CC(=O)OCC(=O)[C@@]1(OC(C)=O)CC[C@H]2[C@@H]3CC=C4C=C(OC(=O)CCCc5ccc(N(CCCl)CCCl)cc5)CC[C@]4(C)[C@H]3CC[C@@]21C` [1:16, 17,21-diacetoxy-3-[4-(4-(N,N-bis(2-chloroethyl)amino)phenyl)butanoyloxy]-pregna-3,5-dien-20-one], for which the thymolytic effect result in data set [1] was “significant activity”.

For `CC(=O)OCC(=O)[C@H]1CC[C@H]2[C@@H]3CC=C4C=C(OC(=O)CCCc5ccc(N(CCCl)CCCl)cc5)CC[C@]4(C)[C@H]3CC[C@]12C` [1:17, 21-acetoxy-3-[4-(4-(N,N-bis(2-chloroethyl)amino)phenyl)butanoyloxy]-pregna-3,5-dien-20-one], the thymolytic effect result in data set [1] is given as “significant activity”.

For `CC(=O)O[C@]1(C(C)=O)CC[C@H]2[C@@H]3CC=C4C=C(OC(=O)c5ccc(C)c(N(CCCl)CCCl)c5)CC[C@]4(C)[C@H]3CC[C@@]21C` [2:11, 17-acetoxy-3-[3-(N,N-bis(2-chloroethyl)amino)-4-methylbenzoyloxy]pregna-3,5-dien-20-one], in data set [2] (1000 mg/kg), the Mortality is reported as 0/12 and the “Tumour weight Treated/Control (%)” value is 2%. The progestional activity result in data set [3] is given as “considerable activity”.

`CC(=O)O[C@]1(C(C)=O)CC[C@H]2[C@@H]3CC=C4C=C(OC(=O)CCCc5ccc(N(CCCl)CCCl)cc5)CC[C@]4(C)[C@H]3CC[C@@]21C` [Compound 1:1, 17-acetoxy-3-/4-(4-(N,N-bis(2-chloroethyl)amino)phenyl)butanoyloxy/pregna-3,5-dien-20-one]: in data set [2] (500 mg/kg), the Mortality is listed as 0/12 and the “Tumour weight Treated/Control (%)” value is recorded as 1%. Further, the progestional activity result in data set [3] is reported as “considerable activity”. In the data set on Hepatoma AH 130, the anti-tumour activity entry is given as “exhibit anti-tumour activity”.

Take `CC(=O)[C@H]1CC[C@H]2[C@@H]3CC=C4C=C(OC(=O)CCCc5ccc(N(CCCl)CCCl)cc5)CC[C@]4(C)[C@H]3CC[C@]12C` [Compound 1:2, 3-/4-(4-(N,N-bis(2-chloroethyl)amino)phenyl)butanoyloxy/pregna-3,5-dien-20-one]: the progestional activity result in data set [3] is “considerable activity”.

For `CC(=O)O[C@]1(C(C)=O)CC[C@H]2[C@@H]3CC=C4C=C(OC(=O)Cc5ccc(N(CCCl)CCCl)cc5)CC[C@]4(C)[C@H]3CC[C@@]21C` [Compound 1:14, 17-acetoxy-3-[4-(N,N-bis(2-chloroethyl)amino)phenylacetoxy]pregna-3,5-dien-20-one], the progestional activity result in data set [3] is recorded as “considerable activity”.

Take `CC(=O)O[C@H]1CC[C@H]2[C@@H]3CC[C@H]4CC(OC(=O)c5ccc(C)c(N(CCCl)CCCl)c5)=CC[C@]4(C)[C@H]3CC[C@]12C` [Compound 2:1, 17β-acetoxy-3-/3-(N,N-bis(2-chloroethyl)amino)-4-methylbenzoyloxy/androst-2-ene]: in data set [4], the anti-tumour activity entry is reported as “exhibit anti-tumour activity”.

Take `C#C[C@]1(OC(C)=O)CC[C@H]2[C@@H]3CC=C4C=C(OC(=O)CCCc5ccc(N(CCCl)CCCl)cc5)CC[C@@H]4[C@H]3CC[C@@]21C` [Compound 2:2, 17β-acetoxy-3/4-(4-(N,N-bis(2-chloroethyl)amino)phenyl)butanoyloxy/-17α-ethynylestra-3,5-diene]: the progestional activity entry in data set [3] is recorded as “considerable activity”.

Source of the values: patent US4150126A, “Novel enol esters of steroids, compositions containing such compounds, processes for their preparation and methods of treatment therewith” (Aktiebolaget Leo, priority 1976, dated 1979).
